Columns and labels:
Male Swiss mice [1] = experiment: Antagonism of xanomeline-induced diarrhea in mice by oxybutynin (fecal pellet count); format: in vivo; conditions: oxybutynin i.p. 0.3 to 30 mg/kg, 30 minutes before xanomeline 30 mg/kg
Description: Male Swiss mice (4-6 weeks old), N=10 per treatment group were used.
Mice were placed individually in cages without any bedding materials. During the experiment the number of fecal pellets was counted at different time-points as outlined below:
T0: administration of oxybutinin.
T30 min: administration of vehicle or xanomeline.
T 30 min to T 2.5 h: counting of accumulated fecal pellets excreted.
T+2.5 h to T+4.5 h: counting of accumulated fecal pellets excreted.
The total number of fecal pellets for each mouse was counted over time. An analysis of variance (ANOVA) was performed on the results. Fisher's Protected Least Significant Difference was used for pairwise comparisons. The p value≤0.05 were considered significant. Grubbs' test (http//www at graphpad.com/quickcalcs/Grubbs1.cfm) was used to detect outliers for each parameter in each experimental group.

Male Swiss mice [2] = experiment: T-maze continuous alternation task (T-CAT) with oxybutynin and xanomeline; format: in vivo
Text: Evaluation of Cognition with Oxybutynin and Xanomeline in the T-maze Alternation Task in Mice
The T-maze continuous alternation task (T-CAT) is useful as model for studying compounds with cognitive enhancing properties. The T-maze consists of 2 choice arms and 1 start arm mounted to a square center. Manual doors are provided to close specific arms during the force choice alternation task.
Mice were randomly assigned to one of the different experimental treatment groups. Each animal was identified by its group name, cage number, series (day) of experiment, and number (1 to 10) written with permanent ink on the tail.
The T-maze apparatus is made of gray Plexiglas with a main stem (55 cm long[…]10 cm wide[…]20 cm high) and two arms (30 cm long[…]10 cm wide[…]20 cm high) positioned at 90 degree angle relative to the main stem. A start box (15 cm long[…]10 cm wide) is separated from the main stem by a guillotine door. Horizontal doors are also provided to close specific arms during the force choice alternation task. […]
The percentage of alternation over the 14 free-choice trials was determined for each mouse and was used as an index of working memory performance. […]
Analysis of variance (ANOVA) was performed on the results. […] The drug-induced improvement of memory was calculated by setting the respective response of the saline/vehicle as 100% and that of the test group as 0% reversion. […]

[3] = tested on: patients with Alzheimer disease; conditions: cited from earlier work
Male Swiss mice [4] = experiment: Dose-response to xanomeline in a mouse model of diarrhea (fecal pellet count); format: in vivo; conditions: xanomeline i.p. 0.3 to 30 mg/kg
Text: Study 1—Establishment of the Dose-Response to Xanomeline in a Mouse Model of Diarrhea.
Male Swiss mice (4-6 weeks old), N=10 per treatment group were used, and treated intra-peritoneally (i.p.) with either vehicle (vehicle group) or increasing doses of xanomeline, a representative muscarinic agonist. Mice were randomly assigned to one of two experimental groups (vehicle; or increasing doses of xanomeline). Each animal was identified by its group name, cage number, series (day) of experiment, and number (1 to 10) written with permanent ink on the tail.
Mice were placed individually in cages without any bedding materials. During the experiment the number of fecal pellets were counted at different time-points, starting one hour before the time of the administration of the test compound (T0), as outlined below:
T−1 h to T0: counting of the accumulated fecal pellets excreted.
T0: administration of the test compound.
T0 to T+2 h: counting of the accumulated fecal pellets excreted.
T+2 h to T+4 h: counting of the accumulated fecal pellets excreted.
The total number of fecal pellets for each mouse was counted over time. An analysis of variance (ANOVA) was performed on the results. Fisher's Protected Least Significant Difference was used for pairwise comparisons; p values≤0.05 were considered significant. […]

[5] = tested on: healthy volunteers and Alzheimer's patients; conditions: cited from earlier work

| Compound | antagonism of diarrhea induced by xanomeline (Male Swiss mice [1]) | ability to perform the T-maze test after pretreatment (Male Swiss mice [2]; i.p. oxybutynin pretreatment 30 minutes before xanomeline) | cognitive and behavioral symptoms of Alzheimer disease ([3]; compared to placebo, 6 months) | side effects (bradycardia, gastro-intestinal distress, excessive salivation, sweating) ([3]; patients with Alzheimer disease) | diarrhea (number of fecal pellets) (Male Swiss mice [4]) | discontinuation rate ([5]; Alzheimer's patient population) | dose tolerated by some individuals ([5]; oral, taken with food) | maximal tolerated dose ([5]; orally administered) | maximal tolerated dose per day ([5]; orally administered) | ability to perform the T-maze test at the higher dose (Male Swiss mice [2]; i.p. xanomeline, higher dose (dose that caused diarrhea)) |
| --- | --- | --- | --- | --- | --- | --- | --- | --- | --- | --- |
| CCN(CC)CC#CCOC(=O)C(O)(c1ccccc1)C1CCCCC1 (stereo not shown) [oxybutynin, 4-diethylaminobut-2-ynyl 2-cyclohexyl-2-hydroxy-2-phenylethanoate] | dose-dependently antagonized the diarrhea induced by xanomeline | restored the animals' ability to perform the T-maze test |  |  |  |  |  |  |  |  |
| CCCCCCOc1nsnc1C1=CCCN(C)C1 [xanomeline, 3-(4-hexyloxy-1,2,5-thiadiazol-3-yl)-1-methyl-5,6-dihydro-2H-pyridine] |  |  | significantly improve cognitive and behavioral symptoms of Alzheimer disease | dose-dependent unacceptable side effects | dose-dependently causes diarrhea | higher than 50% | 110 mg three times/day | 75 mg three times/day | 225 mg/day | too sick to perform the test |

— patent US10596139B2 (CHASE PHARMACEUTICALS CORPORATION, priority 2015, dated 2020)
